Assay results from patent US20250205191A1, “R(-)-MDMA COMPOSITIONS AND METHODS OF TREATMENT” (EmpathBio, Inc., priority 2023, published 2025).

What was measured:
[1] = tested on: rat embryonic cortical neurons; assay: In vitro rat cortical neurite outgrowth; assay type: cell-based; settings: 3 days, vs vehicle control
Protocol: The experiment included a 0.1% sterile water vehicle negative control condition and a 250 nM donepezil positive control condition, and the number of neurites per neuron, total neurite length per neuron and branchpoints per neuron from n=12 wells per treatment were compared to the vehicle control condition.

[2] = Phase 1 clinical study, urine pharmacokinetics (urinalysis); assay type: in vivo, human
[3] = tested on: male C57BL/6J mice; assay: Mouse extinction of fear learning assay; assay type: in vivo; settings: vs vehicle
Protocol: Extinction of fear learning in rodents is a useful assay to understand if compounds have the potential to enhance learning processes that may be involved in recovery from SAD and other stress and anxiety related disorders, due to its resemblance to exposure-based therapy in humans. […] Freezing behavior, an indicator of the fear response, was measured in the presence of the CS during the extinction training session (Day 1) and the day after (Day 2, Extinction Testing, in the absence of test article). Locomotor activity was measured during the initial 2-minute habituation period, prior to the presentation of the CS, on Days 1 and 2.

[4] = tested on: healthy volunteers; assay: Phase 1 Self-Compassion Scale (SCS); assay type: in vivo, human
Description: Self-compassion is defined as being open to and moved by one's own suffering, experiencing feelings of caring and kindness toward oneself, taking an understanding, non-judgmental attitude toward one's inadequacies and failures, and recognizing that one's own experience is part of the common human experience (Neff, K. D., 2003. The development and validation of a scale to measure self-compassion. Self and Identity, 2, 223-250). The Self-Compassion Scale is an assessment tool designed to measure three core components of self-compassion: self-kindness, common humanity and mindfulness. (SCS; Neff, K. D., 2011. Self-compassion: Stop beating yourself up and leave insecurity behind. New York, NY: Harper Collins) The total self-compassion score is the total of the scores of the sub-items: self-kindness, self-judgement (reversed), common humanity, isolation (reversed), mindfulness and over-identification (reversed).

[5] = tested on: healthy volunteers; assay: Facial Emotion Recognition Test (FERT); assay type: in vivo, human
[6] = molecular target: T1, human 5-HT2C (non-edited) receptor (Homo sapiens, UniProt P28335); assay: 5-HT2C (non-edited) agonism, inositol monophosphate accumulation (HTRF), CHO-K1 recombinant cells; assay type: cell-based
T1 construct: expressed in transfected cells; host or cells: CHO-K1
T1 sequence (P28335 33-458): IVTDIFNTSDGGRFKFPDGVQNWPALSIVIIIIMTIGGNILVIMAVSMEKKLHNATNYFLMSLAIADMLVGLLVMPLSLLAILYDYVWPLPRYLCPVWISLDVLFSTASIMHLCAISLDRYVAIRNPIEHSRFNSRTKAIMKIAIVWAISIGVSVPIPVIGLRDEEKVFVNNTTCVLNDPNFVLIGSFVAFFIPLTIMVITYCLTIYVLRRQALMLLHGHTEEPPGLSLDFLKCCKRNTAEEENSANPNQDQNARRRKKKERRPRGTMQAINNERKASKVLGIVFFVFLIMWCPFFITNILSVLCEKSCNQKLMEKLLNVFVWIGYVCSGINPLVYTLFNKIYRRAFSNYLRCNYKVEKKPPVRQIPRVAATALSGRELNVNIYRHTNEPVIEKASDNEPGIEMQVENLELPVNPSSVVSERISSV

[7] = urine analyte after EMP-01 125 mg, Day 9
[8] = urine analyte after single oral 75 mg R(−)-MDMA, Day 1
[9] = urine analyte after single oral 125 mg R(−)-MDMA, Day 1
[10] = urine analyte after single oral 175 mg R(−)-MDMA, Day 1
[11] = urine analyte after single oral 225 mg R(−)-MDMA, Day 1

In the case of `CN[C@H](C)Cc1ccc2c(c1)OCO2` [R(−)-MDMA, R(−)-3,4-methylenedioxymethamphetamine], the “number of neurites per neuron” value ([1]; 0.0001 μM) is reported as “modest yet significant increases”, the branchpoints per neuron ([1]; 10 μM) is reported as “modest yet significant increases” and the “number of neurites per neuron” value ([1]; 10 μM) is reported as “modest yet significant increases”. The “total neurite length per neuron” value ([1]; 10 μM) was “modest yet significant increases”, the detection in urine ([2]; 0-4 hours postdose) was “detected in urine in all participants by the first collection interval” and the “mean cumulative amount excreted in urine (CAe), trend” value ([2]; across dose groups) was “dose-related increase”. For the same compound, the “mean renal clearance (CLr), trend” value ([2]; across dose groups) was “approximately similar across all dose groups”, the “mean urine concentration over collection intervals” value ([2]; all intervals to 30 hours) was “highest in the 12-24 hour collection interval” and the “Ae12-24, amount excreted at the 12-24 hour collection interval” value [2, 7] was 18.5655 (12.7511) mg. The “CAe, cumulative amount of drug excreted” value [2, 7] was 40.5567 (15.5851) mg, the “CFe, cumulative fraction of drug excreted” value (shortened to “CFe, cumulative fraction”) [2, 7] was 32.4453 (12.4681) % and the “CLr, renal clearance rate” value [2, 7] was 5.2324 (1.8093) L/h. For the same compound, the “Fe12-24, fraction of drug excreted at the 12-24 hour collection interval” value [2, 7] was 14.8524 (10.2009) %, the “Ae12-24, amount excreted at the 12-24 hour collection interval” value [2, 8] was 7.6917 (3.1509) mg and the “CAe, cumulative amount of drug excreted” value [2, 8] was 20.0733 (9.7605) mg. The “CFe, cumulative fraction” value [2, 8] was 26.7643 (13.0140) %, the “CLr, renal clearance rate” value [2, 8] was 4.9966 (1.2255) L/h and the “Fe12-24, fraction of drug excreted at the 12-24 hour collection interval” value [2, 8] was 10.2556 (4.2012) %. For the same compound, the “Ae12-24, amount excreted at the 12-24 hour collection interval” value [2, 9] was 14.5039 (5.6733) mg, the “CAe, cumulative amount of drug excreted” value [2, 9] was 28.2063 (7.8540) mg and the “CFe, cumulative fraction” value [2, 9] was 22.5650 (6.2832) %. The “CLr, renal clearance rate” value [2, 9] was 3.9900 (1.0288) L/h, the “Fe12-24, fraction of drug excreted at the 12-24 hour collection interval” value [2, 9] was 11.6031 (4.5387) % and the “Ae12-24, amount excreted at the 12-24 hour collection interval” value [2, 10] was 20.3702 (13.5536) mg. The “CAe, cumulative amount of drug excreted” value [2, 10] was 59.6271 (34.2201) mg, the “CFe, cumulative fraction” value [2, 10] was 34.0726 (19.5543) % and the “CLr, renal clearance rate” value [2, 10] was 5.9108 (2.5782) L/h. The “Fe12-24, fraction of drug excreted at the 12-24 hour collection interval” value [2, 10] was 11.6401 (7.7449) %, the “Ae12-24, amount excreted at the 12-24 hour collection interval” value [2, 11] was 36.8357 (16.8611) mg and the “CAe, cumulative amount of drug excreted” value [2, 11] was 76.0465 (15.1167) mg. For the same compound, the “CFe, cumulative fraction” value [2, 11] was 33.7985 (6.7186) %, the “CLr, renal clearance rate” value [2, 11] was 5.5411 (1.6424) L/h and the “Fe12-24, fraction of drug excreted at the 12-24 hour collection interval” value [2, 11] was 16.3714 (7.4938) %. For the same compound, the freezing behavior ([3]; 10 mg/kg IP once) was “significantly reduced freezing behavior on Day 2 only”, the locomotor activity ([3]; 10 mg/kg IP once) was “significantly increased activity on Day 1 only” and the freezing behavior ([3]; 17 mg/kg IP once) was “significant reductions of freezing behavior on Days 1 and 2”. For the same compound, the locomotor activity ([3]; 17 mg/kg IP once) was “significantly increased activity on Day 1 only”, the freezing behavior ([3]; 30 mg/kg IP once) was “significant reductions of freezing behavior on Days 1 and 2” and the “locomotor activity (activity counts)” value ([3]; 30 mg/kg IP once) was “significant increases in activity counts on Days 1 and 2”. For the same compound, the “SCS self-kindness score, mean” value ([4]; 225 mg group, 1 week of follow-up) was 4.1, the “SCS self-kindness score, mean at baseline” value ([4]; 225 mg group, before dosing) was 3.9 and the “self-compassion (self-kindness) scores” value ([4]; higher doses, 1 week of follow-up) was “significantly increased”. The “reduction in the recognition of angry (threatening) faces” value (“reduction in the recognition of angry” below) ([5]; 75 mg) was 13.2%, the “reduction in the recognition of angry” value ([5]; 125 mg) was 12.3% and the “reduction in the recognition of angry” value ([5]; 175 mg) was 8.8%. For the same compound, the “misclassifications to happy faces, change from baseline (mean)” value ([5]; 225 mg) was “+1.16”, the “reduction in the recognition of angry” value ([5]; 225 mg) was 12.4% and the agonism in words ([6]; 5-HT2C (non-edited) receptors) was “high potency full agonism”. The “Efficacy (% of a-Me-5-HT response)” value ([6]; 5-HT2C (non-edited), relative to α-Me-5-HT at its EC100) was 97.9%.
